Data: publication PMC7827809, “Responses of the Pheromone-Binding Protein of the Silk Moth Bombyx mori on a Graphene Biosensor Match Binding Constants in Solution” (Sensors (Basel, Switzerland), 2021)
“Also recorded” adds a separate entry of the source. Like-named read-outs stand apart in the source and are kept apart here.

How the values were obtained:
[1] = target: T1, BmorPBP1 (Bombyx mori pheromone-binding protein PBP1) (Bombyx mori, UniProt P34174); assay: Fluorescence binding assay in solution (1-NPN titration and competitive displacement); details: for binding in solution (displacement of 1-NPN), in words: pH 7.4, protein and probe 2 μM
T1 construct: polyhistidine (his-tag, from pET15b) (N); made in house; host or cells: Escherichia coli
T1 sequence (P34174 23-164): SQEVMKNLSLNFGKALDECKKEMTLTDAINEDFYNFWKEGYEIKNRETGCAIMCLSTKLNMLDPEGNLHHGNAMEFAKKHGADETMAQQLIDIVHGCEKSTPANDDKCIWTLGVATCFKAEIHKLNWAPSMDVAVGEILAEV
Protocol: Dissociation constants were measured in solution along with the widely adopted fluorescence binding assay. Spectra were recorded on a PerkinElmer FL 6500 spectrofluorometer at room temperature in a right-angle configuration, with a 1-cm light path quartz cuvette and 5-nm slits for both excitation and emission.
First, the binding of BmorPBP1 to the fluorescent probe N-phenyl-1-naphthylamine (1-NPN) […] of 1-NPN in methanol to final concentrations of 2–16 μM. Excitation wavelength was 337 nm and intensity was recorded at the maximum of the emission peak, 408 nm. The affinities of other ligands were evaluated in competitive binding assays by titrating a solution of the protein and 1-NPN, both at the concentration of 2 μM, with aliquots of 1-mM methanol solutions of each chemical to final concentrations of 2–16 μM. The affinity to 1-NPN was calculated using Prism software. Dissociation constants of competing ligands were evaluated from the corresponding [IC]50 values (the concentration of each ligand halving the initial value of fluorescence), using the equation: Kd = [IC]50/1 + [1-NPN]/KNPN, where [1-NPN] is the concentration of free 1-NPN and KNPN the dissociation constant of the complex Protein/1-NPN.

[2] = target: T2, BmorPBP1 immobilized on reduced graphene oxide field-effect transistor (Bombyx mori, UniProt P34174); assay: BmorPBP1-functionalized rGO-FET biosensor (titration and kinetic runs, Langmuir model); assay type: binding
T2 construct: polyhistidine (his-tag, from pET15b) (N); made in house; host or cells: Escherichia coli
T2 sequence (P34174 23-164): T1 sequence (P34174 23-164)
Protocol: Reduced graphene oxide field-effect transistors (rGO-FET) were fabricated as previously described with a modified channel width of 30 µm. Electrical properties of the FET devices were tested along with the procedure. For the detection of different odorants, the rGO-based biosensors were functionalized with BmorPBP1. Briefly, for the attachment of the protein to the sensing area, the graphene surface was chemically modified with a bifunctional linker: a 10-μL droplet of a 10-μM 6-(4-(pyren-3-yl) butanamido)-2-(bis(carboxymethyl) amino) hexanoic acid solution was applied overnight to the rGO channel area, rinsed, incubated for 30 min with a 40-mM NiCl2 solution (pH 5.5, adjusted with KOH), rinsed, then incubated with 20 μL of a 10-μM protein solution, followed by a final rinse.
The evaluation of BmorPBP1 binding affinities to various odorants was performed under the following standardized conditions: electrical measurements were taken using a Keithley 4200 semiconductor characterization system. An Ag/AgCl reference electrode (Flex ref, World Precision Instruments) was used to operate the FET device in liquid gate configuration with a constant gate bias (Vg) of −0.6 V and a constant source-drain bias (VDS) of 0.05 V. A flow rate of the odorant solutions in the flow cell was set at 300 µL/min in order to minimize mass transfer limitations of the analytes to the sensor surface. […] Subsequently, the biosensor was titrated with different odorant concentrations (1 μM–4 mM) and the change in source–drain current (ΔIDS) was monitored in real time. Here, the lowest odorant concentration was injected first, and the odorant was allowed to interact with the surface immobilized BmorPBP1 to reach equilibrium, as indicated by a constant source–drain current. This process was repeated with odorant solutions of higher concentrations, until the surface was fully saturated with the target analyte, as indicated by a constant source–drain current (IDS). Surface titration experiments were terminated by a final washing step using pure buffer in order to dissociate the formed PBP1-odorant complex, resulting in almost complete restoration of the initial baseline current. […] For this reason, the drain current response curves were normalized by subtraction to the baseline current. Kinetic parameters, as well as the dissociation constant, Kd, of the above described titration experiments were analyzed using the Langmuir model.
With the electronic transducer directly coupled to a flow cell, one can perform titrations as well as kinetic measurements by online changing of the analyte solution (pure buffer, different analytes at different concentrations) flowing through the cell, while recording the sensor response, i.e., a change in the source–drain current, ΔIDS = IDS − IDSBaseline, in real time.
Earlier studies have given evidence that the underlying molecular mechanism of the recognition and binding of odorant analytes from solution to the surface-immobilized protein, BmorPBP1 in this case, can be well described by the Langmuir adsorption model: the sensor has a fixed number of binding sites on its surface, whose occupancy is measured by Θ, the coverage, ranging from 0 to 1. […] The Langmuir model describes this relation between the coverage, Θ, and the bulk analyte concentration, c0 , by Equation (1):(1) Θ(c0)=ΔIDS(c0)/ΔIDS(c∞)=c0/Kd/(1+c0/Kd)
Alternatively, with the flow cell attached, one can measure the kinetics of the sensor response, ΔIDS, after changing the concentration in the bulk to another value. For an increase of the bulk concentration this can be described in the Langmuir model by Equation (2):(2) Θ(t)=c0/Kd/(1+c0/Kd)·(1−e^−(konc0+koff)t)
Measuring this association of kinetics at different bulk concentrations then allows for the determination of the rate constants, kon and koff. […]

[3] = target: T1, BmorPBP1 (Bombyx mori pheromone-binding protein PBP1); details: at concentrations of 7 μM ref 31; cited from earlier work
[4] = competitive displacement of 1-NPN, protein and probe 2 μM, 50 mM Tris-Cl pH 7.4, read-out: Solution Data Kd
[5] = immobilized protein, pH 8.0, Langmuir isotherm fit, read-out: Sensor Data Kd, Titration
[6] = immobilized protein, pH 8.0, kinetic runs, averaged results, read-out: Sensor Data Kd, Kinetics
[7] = Sensor Data Kd, Kinetics, immobilized protein, pH 8.0, kinetic runs, averaged results

c1ccc(Nc2cccc3ccccc23)cc1 [1-NPN, N-phenyl-1-naphthylamine]
Kd [1]: 0.75 µM

COc1nccnc1CC(C)C [2-Isobutyl-3-methoxypyrazine, 2-isobutyl-3-methoxypyrazine]
Kd [1, 4]: > 100 µM
binding in solution (displacement of 1-NPN), in words [1]: poor binding
Kd [2, 5]: 2800 µM
Kd [2, 6]: 1300 µM
sensor response (ΔIDS), in words ([2]; physiological pH / pH 8): very weak responses

CCC/C=C\C=C\CCCCCCCCC=O [Bombykal, bombykal]
Kd [1, 4]: 1.1 µM
binding in solution (displacement of 1-NPN), in words [1]: strongest ligand
displacement of the fluorescence probe 1-NPN, in words [3]: efficiently and similarly displace
Kd [2, 6]: 7.4 µM

CCC/C=C\C=C\CCCCCCCCCO [Bombykol, bombykol]
Kd ([1]; competitive displacement of 1-NPN, pH 4.0, read-out: Solution Data Kd): > 100 µM
Kd [1, 4]: 0.94 µM
binding in solution at pH 4, in words ([1]; pH 4): completely abolished; also recorded: failed to bind
binding in solution (displacement of 1-NPN), in words [1]: strongest ligand
displacement of the fluorescence probe 1-NPN, in words [3]: efficiently and similarly displace
Kd ([2]; immobilized protein, pH 4.0, read-out: Sensor Data Kd, Kinetics): > 1000 µM
Kd [2, 5]: 9.8 µM
Kd [2, 6]: 8.2 µM
sensor response (ΔIDS) at pH 4, in words ([2]; pH 4): failed to bind; also recorded: barely detectable
Kd ([2]; pH 8, single global analysis run of Figure 2A(I)/2C, read-out: kinetically-determined dissociation constant Kd (koff/kon)): 4.7 µM

C=CCc1ccc(O)c(OC)c1 [Eugenol, eugenol]
Kd [1, 4]: 2.8 µM
binding in solution (displacement of 1-NPN), in words [1]: appreciable affinity
Kd [2, 7]: 8.1 µM
Kd ([2]; Sensor Data Kd, Titration, immobilized protein, pH 8.0, Langmuir isotherm fit): 7.6 µM
sensor response (ΔIDS), in words ([2]; physiological pH / pH 8): strong signal

CC(C)=CCC/C(C)=C/CO [Geraniol, geraniol]
Kd [1]: ~20 µM
binding in solution (displacement of 1-NPN), in words [1]: poor binding
Kd [2, 7]: 470 µM
sensor response (ΔIDS), in words ([2]; physiological pH / pH 8): very weak responses

CC(=O)OCCC(C)C [Isoamyl acetate, isoamyl acetate]
Kd [1, 4]: ~20 µM
binding in solution (displacement of 1-NPN), in words [1]: poor binding
Kd [2, 6]: > 1000 µM
sensor response (ΔIDS), in words ([2]; physiological pH / pH 8): does not give a significant response
sensor response (ΔIDS), in words ([2]; physiological pH / pH 8, listed as isoamyl acetate): very weak responses

C=CC(C)(O)CCC=C(C)C (centres unmarked) [Linalool, linalool]
Kd [1, 4]: ~40 µM
binding in solution (displacement of 1-NPN), in words [1]: poor binding
Kd [2, 6]: > 1000 µM
sensor response (ΔIDS), in words ([2]; physiological pH / pH 8): very weak responses
